Test results reported in ChEMBL document CHEMBL3879901, “Substituted isoquinolin-1(2H)-ones, and methods of use thereof” (2012).
Calls of active or inactive are those of the source.

What was measured:
Rattus norvegicus [1] = assay: Antiarthritic activity in type 2 collagen-induced po dosed Lewis rat arthritis model assessed as reduction in cartilage damage in knee administered every 12 hrs for 16 days measured on day 17 of post last dose by toluidine blue staining-based assay; format: functional, organism-based
Rattus norvegicus [2] = assay: Antiarthritic activity in type 2 collagen-induced po dosed Lewis rat arthritis model assessed as reduction in knee pannus administered every 12 hrs for 16 days measured on day 17 of post last dose by toluidine blue staining-based assay; format: functional, organism-based
Rattus norvegicus [3] = assay: Antiarthritic activity in type 2 collagen-induced Lewis rat arthritis model assessed as reduction in serum anti-type 2 collagen levels at 60 mg/kg, po administered every 12 hrs for 16 days measured on day 17 of post last dose by ELISA relative to control; format: functional; set-up: scale not given: the % may be the effect or the level left
Rattus norvegicus [4] = assay: Antiarthritic activity in type 2 collagen-induced Lewis rat arthritis model assessed as reduction in bone resorption in ankle at 60 mg/kg, po administered every 12 hrs for 16 days measured on day 17 of post last dose by toluidine blue staining-based assay; format: functional, organism-based
Rattus norvegicus [5] = assay: Antiarthritic activity in type 2 collagen-induced po dosed Lewis rat arthritis model assessed as reduction in knee inflammation administered every 12 hrs for 16 days measured on day 17 of post last dose by toluidine blue staining-based assay; format: functional, organism-based
[6] = biological target: T1, Phosphatidylinositol 4,5-bisphosphate 3-kinase catalytic subunit delta isoform (Mus musculus) (UniProt O35904); assay: Inhibition of PI3Kdelta in LPS or anti-CD40/IL4-stimulated mouse B cells assessed as decrease in IgE response in presence of mTOR inhibitor rapamycin; format: cell-based
T1 sequence (whole entry): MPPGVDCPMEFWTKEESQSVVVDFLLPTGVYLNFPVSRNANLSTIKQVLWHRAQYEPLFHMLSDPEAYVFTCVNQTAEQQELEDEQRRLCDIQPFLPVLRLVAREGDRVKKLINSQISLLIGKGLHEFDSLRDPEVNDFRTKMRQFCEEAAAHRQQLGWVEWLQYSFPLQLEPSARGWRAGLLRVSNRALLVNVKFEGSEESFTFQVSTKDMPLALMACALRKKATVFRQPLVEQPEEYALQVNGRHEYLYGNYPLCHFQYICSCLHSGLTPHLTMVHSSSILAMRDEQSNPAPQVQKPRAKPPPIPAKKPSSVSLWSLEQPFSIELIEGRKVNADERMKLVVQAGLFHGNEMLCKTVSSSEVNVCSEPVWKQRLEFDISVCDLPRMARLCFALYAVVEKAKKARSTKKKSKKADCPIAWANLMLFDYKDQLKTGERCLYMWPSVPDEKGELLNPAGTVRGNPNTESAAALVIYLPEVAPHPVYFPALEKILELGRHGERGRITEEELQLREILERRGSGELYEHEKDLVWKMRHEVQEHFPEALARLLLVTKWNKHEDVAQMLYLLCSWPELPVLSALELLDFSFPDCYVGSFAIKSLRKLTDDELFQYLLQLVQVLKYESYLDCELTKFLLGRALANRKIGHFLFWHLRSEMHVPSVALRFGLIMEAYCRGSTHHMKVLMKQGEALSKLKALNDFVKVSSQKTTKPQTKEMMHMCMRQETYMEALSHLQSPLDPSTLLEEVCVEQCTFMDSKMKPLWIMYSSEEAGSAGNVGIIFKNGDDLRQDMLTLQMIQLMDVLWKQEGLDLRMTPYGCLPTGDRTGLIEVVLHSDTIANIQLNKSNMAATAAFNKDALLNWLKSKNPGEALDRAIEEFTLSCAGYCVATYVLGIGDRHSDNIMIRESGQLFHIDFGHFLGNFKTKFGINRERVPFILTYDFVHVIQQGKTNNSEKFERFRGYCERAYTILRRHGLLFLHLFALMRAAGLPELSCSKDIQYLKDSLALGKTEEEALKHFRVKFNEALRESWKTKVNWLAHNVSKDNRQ

[7] = Toxicity in complete freund's adjuvant-induced intrathecally dosed Lewis rat arthritis model assessed as body weight loss at 10 to 60 mg/kg, administered intrathecally on day 8 to 20 post arthritis induction measured every second day of compound dosing; format: organism-based; details: in vivo, icv_or_intrathecal
Rattus norvegicus [8] = assay: Antiarthritic activity in type 2 collagen-induced Lewis rat arthritis model assessed as reduction in ankle diameter at 10 to 60 mg/kg, po bid administered for 6 days measured every day of compound dosing and day 7 of post last dose; format: functional, organism-based
[9] = biological target: T1, Phosphatidylinositol 4,5-bisphosphate 3-kinase catalytic subunit delta isoform (Mus musculus); assay: Inhibition of PI3Kdelta in LPS or anti-CD40/IL4-stimulated mouse B cells assessed as decrease in IgG response in presence of mTOR inhibitor rapamycin relative to vehicle-treated control; format: cell-based

CC(=O)Nc1nc2ccc(-c3nn(Cc4cc5cccc(C)c5c(=O)n4-c4ccccc4C)c4ncnc(N)c34)cc2s1
active: Activity (Rattus norvegicus [1]) Dose-dependent effect | Activity (Rattus norvegicus [2]) Dose-dependent effect | Activity (Rattus norvegicus [4]) | Activity (Rattus norvegicus [5]) Dose-dependent effect | inhibition [6] | Activity (Rattus norvegicus [8]) | inhibition [9]
86%: Activity (Rattus norvegicus [3])
Toxic: Activity [7]
